Assay results from patent US6710168B1, “Glycopeptide antibiotics, combinatorial libraries of glycopeptide antibiotics and methods of producing same” (The Trustees of the University of Princeton, priority 1999, dated 2004).
In brackets after ≈: the same amount, converted by molar mass.

Assays:
Format in all cases: cell-based
[1] = test system: Bacillus cereus (ATCC 11778); assay: MIC susceptibility test, microdilution with MTT readout; conditions: for MIC: Bacillus cereus, ATCC11778, read-out: MIC BC; for MIC BC: Bacillus ceres ATCC11778
Summary of the method: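 Bacillus cereus ATCC® 11778 susceptibility was measured by broth microdilution in 96-well microplates using Cation Adjusted Mueller-Hinton broth. Samples were diluted two-fold from 5 μg/mL over 12 steps. Each well combined 100 μL of cell suspension (10^6 CFU/mL) with 100 μL of antibiotic solution and was incubated at 37° C. for 24 h. Then 50 μL of MTT (1 mg/mL) was added for 30 min, and MIC (μg/mL) was read as the lowest concentration inhibiting growth.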

[2] = test system: Enterococcus faecalis (ATCC 29212); assay: as above; conditions: Enterococcus faecalis ATCC29212; for MIC: read-out: MIC EF
Summary of the method: (§1)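 Broth microdilution in cation-adjusted Mueller-Hinton broth, 12-step two-fold series from 5 μg/mL to […], mixed 1:1 with 10^6 CFU/mL cell suspension and incubated 24 h at 37 °C. MTT (1 mg/mL solution) is then added for 30 min (S. aureus, MRSA) or 2 h (E. faecalis strains). MIC = lowest concentration inhibiting growth.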

[3] = test system: Methicillin resistant Staphylococcus aureus (ATCC 33591); assay: as above; conditions: Staphylococcus aureus ATCC3359, Methicillin resistance; for MIC: ATCC 3359 / ATCC 33591 / MRSA, read-out: MIC MRSA
Summary of the method: as §1

[4] = test system: Staphylococcus aureus (ATCC 29213); assay: as above; conditions: Staphylococcus aureus ATCC29213; for MIC: read-out: MIC SA
Summary of the method: as §1

[5] = test system: gentamicin, streptmycin, vancomycin resistant Enterococcus faecalis (ATCC 51299); assay: microbe, parasite or virus in culture; conditions: for MIC: Enterococcus faecalis, ATCC51299, read-out: MIC VREF; for MIC VREF: Enterococcus faecalis ATCC51299, vancomycin resistance
Summary of the method: as §1

[6] = test system: Enterococcus faecium CL5137, VanA; assay: MIC susceptibility test; conditions: Enterococcus faecium CL5137, VanA; for MIC: read-out: MIC CL5137
[7] = test system: Enterococcus faecalis CL5244, VanB; assay: MIC susceptibility test; conditions: Enterococcus faecalis CL5244, VanB; for MIC: read-out: MIC CL5244
Summary of the method: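 MTT-based broth microdilution in cation-adjusted Mueller-Hinton broth; two-fold 12-step dilutions […], inoculum 10^6 CFU/mL, 37° C for 24 h.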

SMILES | MIC [1] [µg/mL] | MIC [2] [µg/mL] | MIC [3] [µg/mL] | MIC [4] [µg/mL] | MIC [5] [µg/mL] | MIC [6] [µg/mL] | MIC [7] [µg/mL] | MIC BC [1] [µg/mL] | MIC EF [2] [µg/mL] | MIC MRSA [3] [µg/mL] | MIC SA [4] [µg/mL] | MIC VREF [5] [µg/mL] | MIC CL5137 [6] | MIC CL5244 [7] [µg/mL]
CN[C@@H](CC(C)C)C(=O)N[C@H]1C(=O)N[C@@H](CC(N)=O)C(=O)N[C@H]2C(=O)NC3C(=O)N[C@H](C(=O)N[C@@H](C(=O)O)c4cc(O)cc(O)c4-c4cc3ccc4O)[C@H](O)c3ccc(c(Cl)c3)Oc3cc2cc(c3OC2OC(CSc3nnnn3-c3ccc(O)cc3)C(O)C(O)C2OC2CC(C)(N)C(O)C(C)O2)Oc2ccc(cc2Cl)[C@H]1O (some centres unmarked) [LXVIII, Glucose-C6-5-thio-1-(4-hydroxyphenyl)-1H-tetrazole Vancomycin] | 1.3 (≈ 0.8 µM) | 2.5 (≈ 1.54 µM) | 2.5 (≈ 1.54 µM) | 2.5 (≈ 1.54 µM) | > 5 | > 50 | 13 (≈ 8 µM) | – | – | – | – | – | – | –
CNC(CC(C)C)C(=O)NC1C(=O)NC(CC(N)=O)C(=O)NC2C(=O)NC3C(=O)NC(C(=O)NC(C(=O)O)c4cc(O)cc(O)c4-c4cc3ccc4O)C(O)c3ccc(c(Cl)c3)Oc3cc2cc(c3OC2OC(CI)C(O)C(O)C2OC2CC(C)(N)C(O)C(C)O2)Oc2ccc(cc2Cl)C1O (centres unmarked) [LXX, Glucose-C6-iodo Vancomycin] | – | – | – | – | – | – | – | 0.63 (≈ 0.404 µM) | 0.63 (≈ 0.404 µM) | 1.3 (≈ 0.834 µM) | 0.63 (≈ 0.404 µM) | 1.9 (≈ 1.22 µM) | 50< μg/mL | 6.3 (≈ 4.04 µM)
CCCCCCCCCCNC1(C)CC(OC2C(Oc3c4cc5cc3Oc3ccc(cc3Cl)C(O)C3NC(=O)C(NC(=O)C5NC(=O)C(CC(N)=O)NC(=O)C(NC(=O)C(CC(C)C)NC)C(O)c5ccc(c(Cl)c5)O4)c4ccc(O)c(c4)-c4c(O)cc(O)cc4C(C(=O)O)NC3=O)OC(CSc3nc(N)n[nH]3)C(O)C2O)OC(C)C1O (centres unmarked) [LXXII, Vancosamine-N-decyl-glucose-C6-S-3-amino-5-mercapto-1,2,4-triazole Vancomycin] | – | – | – | – | – | – | – | 2.5 (≈ 1.48 µM) | 0.32 (≈ 0.19 µM) | 1.9 (≈ 1.13 µM) | 3.8 (≈ 2.25 µM) | 0.32 (≈ 0.19 µM) | 6.3 µg/mL (≈ 3.73 µM) | 0.3 (≈ 0.178 µM)
CN[C@H](CC(C)C)C(=O)N[C@H]1C(=O)N[C@@H](CC(N)=O)C(=O)N[C@H]2C(=O)N[C@H]3C(=O)N[C@H](C(=O)N[C@H](C(=O)O)c4cc(O)cc(O)c4-c4cc3ccc4O)[C@H](O)c3ccc(c(Cl)c3)Oc3cc2cc(c3OC2OC(CSc3nc(N)n[nH]3)C(O)C(O)C2OC2CC(C)(NCc3ccc(-c4ccc(Cl)cc4)cc3)C(O)C(C)O2)Oc2ccc(cc2Cl)[C@H]1O (some centres unmarked) [LXXIII, Vancosamine-N-4-(4-chlorophenyl)benzyl, Glucose-C6-S-3-amino-5-mercapto-1,2,4-triazole Vancomycin] | 0.48 (≈ 0.275 µM) | 0.16 (≈ 0.0915 µM) | 1 (≈ 0.572 µM) | 1.9 (≈ 1.09 µM) | 0.08 (≈ 0.0458 µM) | 3.2 (≈ 1.83 µM) | 0.2 (≈ 0.114 µM) | – | – | – | – | – | – | –
CNC(CC(C)C)C(=O)NC1C(=O)NC(CC(N)=O)C(=O)NC2C(=O)NC3C(=O)NC(C(=O)NC(C(=O)O)c4cc(O)cc(O)c4-c4cc3ccc4O)C(O)c3ccc(c(Cl)c3)Oc3cc2cc(c3OC2OC(CI)C(O)C(O)C2OC2CC(C)(NCc3ccc(-c4ccc(Cl)cc4)cc3)C(O)C(C)O2)Oc2ccc(cc2Cl)C1O (centres unmarked) [LXXIIa, Vancosamine-N-4-(4-chlorophenyl)benzyl-glucose-C6-iodo vancomycin] | – | – | – | – | – | – | – | 0.32 (≈ 0.182 µM) | 0.16 (≈ 0.0909 µM) | 0.63 (≈ 0.358 µM) | 0.48 (≈ 0.273 µM) | 0.32 (≈ 0.182 µM) | 13 µg/mL (≈ 7.39 µM) | 0.3 (≈ 0.17 µM)
CN[C@@H](CC(C)C)C(=O)N[C@H]1C(=O)N[C@@H](CC(N)=O)C(=O)N[C@H]2C(=O)NC3C(=O)N[C@H](C(=O)N[C@@H](C(=O)O)c4cc(O)cc(O)c4-c4cc3ccc4O)[C@H](O)c3ccc(c(Cl)c3)Oc3cc2cc(c3OC2OC(CN=[N+]=[N-])C(O)C(O)C2OC2CC(C)(NCc3ccc(-c4ccc(Cl)cc4)cc3)C(O)C(C)O2)Oc2ccc(cc2Cl)[C@H]1O (some centres unmarked) [LXXIV, N-4-(4-Chlorophenyl)benzylvancosamine-glucose-C6-azide Vancomycin] | 0.32 (≈ 0.191 µM) | 0.16 (≈ 0.0955 µM) | 0.48 (≈ 0.287 µM) | 1 (≈ 0.597 µM) | 0.16 (≈ 0.0955 µM) | 13 (≈ 7.76 µM) | 0.3 (≈ 0.179 µM) | – | – | – | – | – | – | –
CCCCCCCCCCNC1(C)CC(OC2C(Oc3c4cc5cc3Oc3ccc(cc3Cl)[C@@H](O)[C@@H](NC(=O)[C@H](CC(C)C)NC)C(=O)N[C@@H](CC(N)=O)C(=O)N[C@H]5C(=O)NC3C(=O)N[C@H](C(=O)N[C@@H](C(=O)O)c5cc(O)cc(O)c5-c5cc3ccc5O)[C@H](O)c3ccc(c(Cl)c3)O4)OC(CSc3nnc(C)c(O)n3)C(O)C2O)OC(C)C1O (some centres unmarked) [LXXIX, N-Decylvancosamine-glucose-C6-2-thio-6-azathymine Vancomycin] | 0.63 (≈ 0.367 µM) | 0.32 (≈ 0.187 µM) | 1.3 (≈ 0.758 µM) | 2.5 (≈ 1.46 µM) | 0.63 (≈ 0.367 µM) | 25 (≈ 14.6 µM) | 0.6 (≈ 0.35 µM) | – | – | – | – | – | – | –
CN[C@@H](CC(C)C)C(=O)N[C@H]1C(=O)N[C@@H](CC(N)=O)C(=O)N[C@H]2C(=O)NC3C(=O)N[C@H](C(=O)N[C@@H](C(=O)O)c4cc(O)cc(O)c4-c4cc3ccc4O)[C@H](O)c3ccc(c(Cl)c3)Oc3cc2cc(c3OC2OC(CN)C(O)C(O)C2OC2CC(C)(NCc3ccc(-c4ccc(Cl)cc4)cc3)C(O)C(C)O2)Oc2ccc(cc2Cl)[C@H]1O (some centres unmarked) [LXXV, N-4-(4-Chlorophenyl)benzylvancosamine-glucose-C6-amine Vancomycin] | 0.16 (≈ 0.097 µM) | ≤ 0.03 | ≤ 0.03 | ≤ 0.03 | 0.63 (≈ 0.382 µM) | 2 (≈ 1.21 µM) | ≤ 0.03 | – | – | – | – | – | – | –
CN[C@@H](CC(C)C)C(=O)N[C@H]1C(=O)N[C@@H](CC(N)=O)C(=O)N[C@H]2C(=O)NC3C(=O)N[C@H](C(=O)N[C@@H](C(=O)O)c4cc(O)cc(O)c4-c4cc3ccc4O)[C@H](O)c3ccc(c(Cl)c3)Oc3cc2cc(c3OC2OC(CSc3nnc(N)s3)C(O)C(O)C2OC2CC(C)(N)C(O)C(C)O2)Oc2ccc(cc2Cl)[C@H]1O (some centres unmarked) [LXXVI, Glucose-C6-2-thio-5-amino-1,3,4-thiadiazole Vancomycin] | 0.63 (≈ 0.403 µM) | 1.3 (≈ 0.831 µM) | 0.63 (≈ 0.403 µM) | 0.63 (≈ 0.403 µM) | > 5 | > 50 | 19 (≈ 12.1 µM) | – | – | – | – | – | – | –
CN[C@@H](CC(C)C)C(=O)N[C@H]1C(=O)N[C@@H](CC(N)=O)C(=O)N[C@H]2C(=O)NC3C(=O)N[C@H](C(=O)N[C@@H](C(=O)O)c4cc(O)cc(O)c4-c4cc3ccc4O)[C@H](O)c3ccc(c(Cl)c3)Oc3cc2cc(c3OC2OC(CSc3nnc(NN)n3N)C(O)C(O)C2OC2CC(C)(N)C(O)C(C)O2)Oc2ccc(cc2Cl)[C@H]1O (some centres unmarked) [LXXVII, Glucose-C6-5-thio-4-amino-3-hydrazino-1,2,4-triazole Vancomycin] | 0.63 (≈ 0.399 µM) | 0.63 (≈ 0.399 µM) | 1.3 (≈ 0.824 µM) | 1.3 (≈ 0.824 µM) | 1.3 (≈ 0.824 µM) | 63 (≈ 39.9 µM) | 3.2 (≈ 2.03 µM) | – | – | – | – | – | – | –
CN[C@@H](CC(C)C)C(=O)N[C@H]1C(=O)N[C@@H](CC(N)=O)C(=O)N[C@H]2C(=O)NC3C(=O)N[C@H](C(=O)N[C@@H](C(=O)O)c4cc(O)cc(O)c4-c4cc3ccc4O)[C@H](O)c3ccc(c(Cl)c3)Oc3cc2cc(c3OC2OC(CSc3nc(C)cc(O)n3)C(O)C(O)C2OC2CC(C)(N)C(O)C(C)O2)Oc2ccc(cc2Cl)[C@H]1O (some centres unmarked) [LXXVIII, Glucose-C6-2-thio-4-hydroxy-6-methylpyrimidine Vancomycin] | 0.63 (≈ 0.4 µM) | 0.63 (≈ 0.4 µM) | 1.3 (≈ 0.826 µM) | 1 (≈ 0.636 µM) | 2.5 (≈ 1.59 µM) | > 50 | 6.3 (≈ 4 µM) | – | – | – | – | – | – | –
